{"source": "patent US20090221581A1", "about": "“Methods of treating pain” (priority 2005, published 2009)", "key": {"[1]": {"system": "SNI mice", "experiment": "Spared nerve injury (SNI) model of chronic neuropathic pain, von Frey assay", "assay_type": "in vivo", "description": "As outlined above, the spared nerve injury (SNI) model (see FIG. 1) involves a lesion of two of the three terminal branches of the sciatic nerve (tibial and common peroneal nerves) of experimental animals, leaving the sural nerve intact. SNI results in mechanical and thermal allodynia in the non-injured sural nerve skin territory (Decosterd & Woolf, Pain 2000; 87:149-158; Tsujino et al., Mol. Cel. Neurosci. 2000; 15:170-182).\nWildtype mice (strain C3HeB/FeJ) (age, sex and weight matched) were anesthetized with Hypnorm (0.315 mg/ml fentanyl citrate+10 mg/ml fluanisone; Janssen)/Hypnovel (5 mg/ml midazolam; Roche Applied Sciences)/water at a ratio of 1:1:2 at 4 μl/g prior to surgical preparation.\nSubsequently, an incision was made under aseptic precautions in the ipsi-lateral right hind leg of all mice just above the level of the knee, exposing the three terminal branches of the sciatic nerve: the common peroneal, tibial, and sural nerves. The common peroneal and tibial nerves were ligated tightly with 7/0 silk and sectioned distal to the ligation removing ≈2 mm of distal nerve stump. The sural branch remained untouched during the procedure (denoted herein “SNI ipsi”). The overlying muscle and skin was sutured, and the animals were allowed to recover and to permit wound healing. In the same mice, the sciatic nerve branches of the contra-lateral left hind leg were exposed but not lesioned (denoted herein “SNI contra-lateral”). Mice that underwent spared nerve injury are hereinafter denoted “SNI mice”.\nAfter recovery from surgery and wound healing, SNI mice received intraperitoneal (i.p.) injections of CDK-inhibiting compounds. In particular, compound A and B as disclosed herein, belonging to the class of 4,6-disubstituted aminopyrimidine derivatives as described in WO2005/026129 were administered. […]\nInjection of inhibitor or vehicle, and subsequent measurements of paw withdrawal threshold upon mechanical stimulation in von Frey assays were performed at day 0, day 7, day 21 and day 28 post SNI. Reflex nociceptive responses to mechanical stimulation were measured in a von Frey assay 30 min after each injection. An additional von Frey measurement was performed at day 14, but without prior injection of compound or vehicle.\nMice which underwent SNI and subsequent administration of the CDK-inhibiting compounds of the present invention were tested for signs of mechanical allodynia post nerve injury and post administration in a von Frey assay (Decosterd and Woolf, Pain 2000; 87:149-158). This assay determines the mechanical threshold upon which a stimulus, which normally is not painful, is recognized by an animal as uncomfortable or painful. SNI ipsi and SNI contra baselines, respectively, were established.\nMechanical thresholds of SNI mice were quantified using the up-down method based on Chaplan et al. (1994) and Malmberg and Basbaum (1998):\nMice were placed in plexiglass cylinders of about 9.5 cm in diameter, 14 cm high with four vent holes towards the top and a Plexiglas lid. The cylinders were placed on an elevated mesh surface (7×7 mm squares). Prior to the day of testing, the mice were adapted to the testing cylinders for 1-2 hours. On the day of testing the mice were adapted to the cylinders for about an hour, wherein the adaptation time depends on factors such as the strain of the mouse and the number of times they have been tested previously. In general, testing may begin once the mice are calm and stop exploring the new environment.\nFor testing mice, filaments 2.44, 2.83, 3.22, 3.61, 3.84, 4.08, and 4.31 (force range=0.04 to 2.0 g) were used. The […] filament was applied first. Said filament was gently applied to the plantar surface of one paw, allowed to bend, and held in position for 2-4 seconds. Whenever a positive response to the stimulus (flexion reaction) occurred, the next weaker von Frey filament was applied; whenever a negative response (no reaction) occurred, the next stronger force was applied. […]"}, "[2]": {"molecular_target": "T1, CDK1/CycB (Homo sapiens, UniProt P06493)", "T1 construct": "made in house; host or cells: Sf9 insect cells, baculovirus", "T1 sequence (P06493 whole entry)": "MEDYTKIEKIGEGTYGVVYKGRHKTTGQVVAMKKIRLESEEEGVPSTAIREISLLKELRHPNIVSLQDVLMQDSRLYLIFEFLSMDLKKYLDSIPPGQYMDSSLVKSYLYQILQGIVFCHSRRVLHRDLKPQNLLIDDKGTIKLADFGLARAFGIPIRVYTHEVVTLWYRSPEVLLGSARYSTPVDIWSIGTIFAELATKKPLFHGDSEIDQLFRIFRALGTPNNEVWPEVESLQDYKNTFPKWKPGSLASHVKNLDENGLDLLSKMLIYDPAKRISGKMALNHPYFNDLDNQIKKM", "T1 sequence (P14635 whole entry partner)": "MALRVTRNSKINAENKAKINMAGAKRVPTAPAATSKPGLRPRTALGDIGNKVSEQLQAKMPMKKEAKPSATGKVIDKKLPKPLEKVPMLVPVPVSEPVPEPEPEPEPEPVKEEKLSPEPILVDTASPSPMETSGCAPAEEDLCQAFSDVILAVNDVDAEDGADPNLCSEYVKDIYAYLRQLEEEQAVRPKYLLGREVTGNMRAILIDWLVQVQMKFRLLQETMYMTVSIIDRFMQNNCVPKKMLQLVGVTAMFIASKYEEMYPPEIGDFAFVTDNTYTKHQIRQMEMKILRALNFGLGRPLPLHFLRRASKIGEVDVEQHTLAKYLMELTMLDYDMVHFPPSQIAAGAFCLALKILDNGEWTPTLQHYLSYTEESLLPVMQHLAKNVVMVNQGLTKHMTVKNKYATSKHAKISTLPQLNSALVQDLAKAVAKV", "experiment": "In vitro kinase inhibition assay, CDK1/CycB", "assay_type": "biochemical"}}}
{"smiles": "COc1ccccc1-c1cc(Nc2cccc(S(N)(=O)=O)c2)ncn1", "note": "[Compound A]", "values": [{"measurement": "effect on von Frey mechanical threshold", "setting": "[1]; 30 mg/kg at midnight and 8.00 a.m., measured 8.30 a.m., day 28 post SNI", "result": "significant increases in thresholds"}, {"measurement": "effect on SNI-induced allodynia (von Frey)", "setting": "[1]; 30 mg/kg i.p. 30 minutes before von Frey testing", "result": "hypoalgesic effect"}, {"measurement": "effect on von Frey mechanical threshold", "setting": "[1]; 30 mg/kg i.p. 30 minutes prior to measurements, day 21 post SNI", "result": "significant increase of threshold values"}, {"measurement": "effect on von Frey mechanical threshold", "setting": "[1]; 30 mg/kg i.p., day 7 post SNI", "result": "does not show any effect"}, {"measurement": "average von Frey threshold value, contra-lateral paw", "setting": "[1]; 30 mg/kg i.p., day 21 and 28", "result": "~0.4", "unit": "g"}, {"measurement": "average von Frey threshold value, ipsi-lateral paw", "setting": "[1]; 30 mg/kg i.p., day 21 and 28", "result": "~0.3", "unit": "g"}, {"measurement": "IC50", "setting": "[2]", "result": 15.8, "unit": "µM"}]}
